Literature values as cited in PMC4411882, “Developmental Potential for Endomorphin Opioidmimetic Drugs” (International Journal of Medicinal Chemistry, 2012).
Where a SMILES comes first, the peptide text is derived from it. [ ]: non-standard residue; d: D form. The star is where a group is joined. Dmt = Cc1cc(O)cc(C)c1C[C@H](N)C(=O)O; NHPhenethyl = c1ccc(CCN*)cc1

What was measured:
[1] = biological target: T1, μ-opioid receptor (GPI) (Cavia porcellus, UniProt P97266); set-up: species or system guinea pig ileum
T1 construct: gene OPRM1; guinea pig ileum (GPI) bioassay
Description: (§1) Therefore, we substituted hydrophobic groups in lieu of the phenethyl group to develop the class of H-Dmt-Pro-Phe-NH-X ligands (Figure 1).

[2] = biological target: T2, δ-opioid receptor (MVD) (Mus musculus, UniProt P32300); set-up: species or system mouse vas deferens
T2 construct: gene Oprd1; mouse vas deferens (MVD) bioassay
Description: as §1

[3] = biological target: μ-opioid receptor (Rattus norvegicus, UniProt P33535); set-up: gene Oprm1; rat brain P2 synaptosomal preparations; species or system rat brain P2 synaptosomal preparations; conditions: read-out: Kiμ
[4] = biological target: δ-opioid receptor (Rattus norvegicus, UniProt P33533); set-up: gene Oprd1; rat brain P2 synaptosomal preparations; species or system rat brain P2 synaptosomal preparations; conditions: read-out: Kiδ
Chain of δ-opioid receptor (P33533 whole entry): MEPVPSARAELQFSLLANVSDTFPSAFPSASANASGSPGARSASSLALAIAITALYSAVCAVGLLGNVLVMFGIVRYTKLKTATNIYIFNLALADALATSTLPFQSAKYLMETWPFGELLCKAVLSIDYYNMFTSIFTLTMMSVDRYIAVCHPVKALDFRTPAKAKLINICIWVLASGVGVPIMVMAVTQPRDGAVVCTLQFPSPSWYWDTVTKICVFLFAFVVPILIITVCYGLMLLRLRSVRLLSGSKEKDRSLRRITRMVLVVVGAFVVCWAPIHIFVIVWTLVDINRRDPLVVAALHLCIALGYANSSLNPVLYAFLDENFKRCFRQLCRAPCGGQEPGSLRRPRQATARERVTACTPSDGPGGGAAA

T1 sequence (P97266 whole entry): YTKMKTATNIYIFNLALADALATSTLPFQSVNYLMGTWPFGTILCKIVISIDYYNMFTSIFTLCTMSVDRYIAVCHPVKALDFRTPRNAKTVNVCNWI
T2 sequence (P32300 whole entry): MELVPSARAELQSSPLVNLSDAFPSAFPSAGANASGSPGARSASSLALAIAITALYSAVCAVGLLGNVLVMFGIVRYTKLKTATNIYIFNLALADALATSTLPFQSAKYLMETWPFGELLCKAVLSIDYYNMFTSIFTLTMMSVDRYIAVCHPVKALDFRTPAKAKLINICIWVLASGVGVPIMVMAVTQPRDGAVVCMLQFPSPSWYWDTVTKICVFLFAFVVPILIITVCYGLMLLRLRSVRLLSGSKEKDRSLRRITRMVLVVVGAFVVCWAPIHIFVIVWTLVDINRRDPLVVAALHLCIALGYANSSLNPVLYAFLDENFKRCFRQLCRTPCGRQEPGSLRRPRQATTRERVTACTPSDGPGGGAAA
Chain of μ-opioid receptor (P33535 whole entry): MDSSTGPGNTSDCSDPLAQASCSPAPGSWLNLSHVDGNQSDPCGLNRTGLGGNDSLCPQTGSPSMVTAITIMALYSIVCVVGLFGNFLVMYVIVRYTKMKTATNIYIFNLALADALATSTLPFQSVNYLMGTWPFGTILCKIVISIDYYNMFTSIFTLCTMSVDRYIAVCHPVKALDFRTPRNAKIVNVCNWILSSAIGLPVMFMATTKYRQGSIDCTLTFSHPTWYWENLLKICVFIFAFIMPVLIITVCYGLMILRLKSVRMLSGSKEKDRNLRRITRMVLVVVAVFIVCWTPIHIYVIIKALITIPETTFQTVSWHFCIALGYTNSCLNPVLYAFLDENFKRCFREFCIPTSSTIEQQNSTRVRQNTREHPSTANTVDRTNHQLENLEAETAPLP

## Cc1cc(O)cc(C)c1C[C@H](N)C(=O)N1CCC[C@H]1C(=O)N[C@@H](Cc1ccccc1)C(=O)NCCc1ccccc1 [compound 22, H-Dmt-Pro-Phe-NH-C2H4-Ph] (H-[Dmt]-Pro-Phe-NHPhenethyl)
[1]
  IC50: 5.03 nM
[2]
  IC50: > 10000 nM
[3]
  Ki: 0.51 nM
[4]
  Ki: 18 nM

## Cc1cc(O)cc(C)c1CC(C(=O)N1Cc2ccccc2CC1C(=O)NCCCc1[nH]c(=O)c(CCCNC(=O)C2Cc3ccccc3CN2C(=O)C(Cc2c(C)cc(O)cc2C)N(C)C)nc1C)N(C)C (stereo not drawn) [compound 70, 3,6-bis[N,N-dimethyl-Dmt-Tic-NH-propyl]-5-methyl-2(1H)-pyrazinone]
[1]
  IC50: > 10000 nM
[2]
  IC50: > 10000 nM
[3]
  Ki: 1.68 nM
[4]
  Ki: 0.287 nM

## Cc1cc(O)cc(C)c1C[C@H](N)C(=O)N1CCC[C@H]1C(=O)N[C@@H](Cc1ccccc1)C(=O)Nc1cccc2ccccc12 [compound 28, H-Dmt-Pro-Phe-NH-1-Nph]
[1]
  IC50: 0.49 nM
[2]
  IC50: 5.47 nM
[4]
  Ki: 19.9 nM

## Cc1cc(O)cc(C)c1CC(N)C(=O)N1Cc2ccccc2CC1C(=O)NCc1[nH]c(=O)c(CNC(=O)C2Cc3ccccc3CN2C(=O)C(N)Cc2c(C)cc(O)cc2C)nc1C (stereo not drawn) [compound 59, 3,6-bis[Dmt-Tic-NH-CH2]-5-methyl-2(1H)-pyrazinone]
[1]
  IC50: > 10000 nM
[2]
  IC50: > 10000 nM
[3]
  Ki: 3.76 nM
[4]
  Ki: 0.163 nM

## Cc1cc(O)cc(C)c1CC(N)C(=O)N1Cc2ccccc2CC1C(=O)NCCc1[nH]c(=O)c(CCNC(=O)C2Cc3ccccc3CN2C(=O)C(N)Cc2c(C)cc(O)cc2C)nc1C (stereo not drawn) [compound 60, 3,6-bis[Dmt-Tic-NH(CH2)2]-5-methyl-2(1H)-pyrazinone]
[1]
  IC50: > 10000 nM
[2]
  IC50: > 10000 nM
[3]
  Ki: 2.83 nM
[4]
  Ki: 0.095 nM

## CCc1cccc(C)c1CC(NC(=O)C1CCCN1C(=O)C(N)Cc1c(C)cc(O)cc1C)C(=O)NC(Cc1ccccc1)C(N)=O (stereo not drawn) [compound 45, H-Dmt-Pro-Emp-Phe-NH2]
[1]
  IC50: 0.17 nM
[2]
  IC50: 0.51 nM
[3]
  Ki: 0.21 nM
[4]
  Ki: 3.03 nM

## H-Dmt-Pro-Phe-NH-4-Pyr [compound 25]
[1]
  IC50: 11.8 nM
[2]
  IC50: > 10000 nM
[4]
  Ki: 52.6 nM

## Cc1cc(O)cc(C)c1C[C@H](N)C(=O)N1CCC[C@H]1C(=O)N[C@@H](Cc1c(C)cccc1C(C)C)C(=O)N[C@@H](Cc1ccccc1)C(N)=O [compound 46, H-Dmt-Pro-Imp-Phe-NH2]
[1]
  IC50: 0.2 nM
[2]
  IC50: 5.56 nM
[3]
  Ki: 0.32 nM
[4]
  Ki: 4.61 nM

## H-Dmt-Pro-Mmp-Phe-NH2 [compound 40]
[1]
  IC50: 0.16 nM
[2]
  IC50: > 10000 nM
[3]
  Ki: 0.18 nM
[4]
  Ki: 4.61 nM

## Cc1cc(O)cc(C)c1C[C@H](N)C(=O)N1CCC[C@H]1C(=O)N[C@@H](Cc1ccccc1)C(=O)Nc1cccc2ncccc12 [compound 30, H-Dmt-Pro-Phe-NH-5-Qln]
[1]
  IC50: 0.26 nM
[2]
  IC50: 0.616 nM
[3]
  Ki: 0.11 nM
[4]
  Ki: 30 nM

## Cc1cc(O)cc(C)c1C[C@H](N)C(=O)N1Cc2ccccc2C[C@H]1C(=O)NCCCCNC(=O)[C@@H]1Cc2ccccc2CN1C(=O)[C@@H](N)Cc1c(C)cc(O)cc1C [compound 66, bis[Dmt-Tic-NH]butane]
[1]
  IC50: > 10000 nM
[2]
  IC50: > 10000 nM
[3]
  Ki: 5.72 nM
[4]
  Ki: 0.124 nM

## Cc1cc(O)cc(C)c1CC(N)C(=O)NCCCc1[nH]c(=O)c(CCCNC(=O)C(N)Cc2c(C)cc(O)cc2C)nc1C (stereo not drawn) [compound 57, 3,6-bis[Dmt-NH(CH2)3]-5-methyl-2(1H)-pyrazinone]
[1]
  IC50: 1.33 nM
[2]
  IC50: > 10000 nM
[3]
  Ki: 0.042 nM
[4]
  Ki: 13.2 nM

## H-Mmt-Pro-Phe-Phe-NH2 [compound 34]
[1]
  IC50: 0.924 nM
[2]
  IC50: 28.7 nM
[3]
  Ki: 0.132 nM
[4]
  Ki: 529 nM

## Cc1cc(O)cc(C)c1C[C@H](N)C(=O)NCCCCCCCCNC(=O)[C@@H](N)Cc1c(C)cc(O)cc1C [compound 54, Dmt-NH-(CH2)8-NH-Dmt]
[1]
  IC50: 53.7 nM
[2]
  IC50: > 10000 nM
[3]
  Ki: 0.19 nM
[4]
  Ki: 14.8 nM

## Cc1cc(O)cc(C)c1CC(N)C(=O)N1Cc2ccccc2CC1C(=O)NCCCc1[nH]c(=O)c(CCCNC(=O)C2Cc3ccccc3CN2C(=O)C(N)Cc2c(C)cc(O)cc2C)nc1C (stereo not drawn) [compound 61, 3,6-bis[Dmt-Tic-NH(CH2)3]-5-methyl-2(1H)-pyrazinone]
[1]
  IC50: 7020 nM
[2]
  IC50: > 10000 nM
[3]
  Ki: 3.08 nM
[4]
  Ki: 0.155 nM

## Cc1cc(O)cc(C)c1CC(N)C(=O)NCCc1[nH]c(=O)c(CCNC(=O)C(N)Cc2c(C)cc(O)cc2C)nc1C (stereo not drawn) [compound 56, 3,6-bis[Dmt-NH(CH2)2]-5-methyl-2(1H)-pyrazinone]
[1]
  IC50: 12.9 nM
[2]
  IC50: > 10000 nM
[4]
  Ki: 7.26 nM

## NC(=O)[C@H](Cc1ccccc1)NC(=O)[C@@H]1CCCN1C(=O)[C@@H](N)Cc1ccc(O)cc1 [compound 18, H-Tyr-Pro-Phe-NH2] (H-Tyr-Pro-Phe-NH2)
[3]
  Ki: 46.1 nM
[4]
  Ki: 15900 nM

## Cc1cc(O)cc(C)c1C[C@H](N)C(=O)N1Cc2ccccc2C[C@H]1C(=O)NCCCCCCNC(=O)[C@@H]1Cc2ccccc2CN1C(=O)[C@@H](N)Cc1c(C)cc(O)cc1C [compound 67, bis[Dmt-Tic-NH]hexane]
[2]
  IC50: > 10000 nM
[3]
  Ki: 1.79 nM
[4]
  Ki: 0.129 nM
